{"source": "ChEMBL document CHEMBL5120915", "about": "“Synthesis of Sulfur-Containing Analogues of Hedychenone, a Labdane Diterpenoid from Hedychium spicatum” (J Nat Prod, 2022)", "data": [{"tested_on": "Staphylococcus aureus", "test": "Antibacterial activity against Staphylococcus aureus MTCC 96 assessed as zone of inhibition preincubated for 2 to 3 hrs followed by 12 to 24 hrs incubation at aerobic condition by well diffusion method", "format": "functional", "conditions": "time 14-27 hrs", "units": {"inhibition zone (IZ)": "mm"}, "values": [{"compound": "CC1=CC(=O)[C@H]2C(C)(C)CCC[C@]2(C)[C@H]1/C=C/c1ccoc1Sc1cccc(Cl)c1", "inhibition zone (IZ)": 6}]}, {"molecular_target": "not listed separately", "test": "Inhibition of Saccharomyces cerevisiae alpha-glucosidase using pNPG as substrate preincubated for 5 mins followed by pNPG addition and measured after 10 mins by microplate reader method", "conditions": "not given", "units": {"IC50": "µg/mL"}, "values": [{"compound": "CC1=CC(=O)[C@H]2C(C)(C)CCC[C@]2(C)[C@H]1/C=C/c1ccoc1Sc1ccc(Cl)cc1", "IC50": 9.7}, {"compound": "CC1=CC(=O)[C@H]2C(C)(C)CCC[C@]2(C)[C@H]1/C=C/c1ccoc1Sc1ccccc1Cl", "IC50": 9.7}, {"compound": "COc1ccccc1Sc1occc1/C=C/[C@H]1C(C)=CC(=O)[C@H]2C(C)(C)CCC[C@]12C", "IC50": 11.82}, {"compound": "C[C@H]1O[C@H](O[C@H]2[C@H](O)[C@@H](O)[C@@H](O[C@H]3[C@H](O)[C@@H](O)C(O)O[C@@H]3CO)O[C@@H]2CO)[C@H](O)[C@@H](O)[C@@H]1N[C@H]1C=C(CO)[C@@H](O)[C@H](O)[C@H]1O", "note": "(stereo partly specified) [ACARBOSE]", "IC50": 3.95}, {"compound": "CC1=CC(=O)[C@H]2C(C)(C)CCC[C@]2(C)[C@H]1/C=C/c1ccoc1Sc1ccc(F)cc1", "IC50": 9.7}, {"compound": "CC1=CC(=O)[C@H]2C(C)(C)CCC[C@]2(C)[C@H]1/C=C/c1ccoc1Sc1ccccc1Br", "IC50": 13.01}, {"compound": "CC1=CC(=O)[C@H]2C(C)(C)CCC[C@]2(C)[C@H]1/C=C/c1ccoc1Sc1cccc(F)c1", "IC50": 9.7}, {"compound": "CC1=CC(=O)[C@H]2C(C)(C)CCC[C@]2(C)[C@H]1/C=C/c1ccoc1Sc1ccccc1", "IC50": 13.17}, {"compound": "CC1=CC(=O)[C@H]2C(C)(C)CCC[C@]2(C)[C@H]1/C=C/c1ccoc1SCc1ccccc1", "IC50": 13.34}, {"compound": "CC1=CC(=O)[C@H]2C(C)(C)CCC[C@]2(C)[C@H]1/C=C/c1ccoc1Sc1cccc(Cl)c1", "IC50": 9.7}, {"compound": "CC1=CC(=O)[C@H]2C(C)(C)CCC[C@]2(C)[C@H]1/C=C/c1ccoc1Sc1ccc(Br)cc1", "IC50": 9.7}, {"compound": "CC1=CC(=O)[C@H]2C(C)(C)CCC[C@]2(C)[C@H]1/C=C/c1ccoc1Sc1ccccc1F", "IC50": 12.15}, {"compound": "CC1=CC(=O)[C@H]2C(C)(C)CCC[C@]2(C)[C@H]1/C=C/c1ccoc1SCc1ccc(Cl)cc1", "IC50": 9.7}, {"compound": "CC1=CC(=O)[C@H]2C(C)(C)CCC[C@]2(C)[C@H]1/C=C/c1ccoc1Sc1cccc(Br)c1", "IC50": 12.23}, {"compound": "CC1=CC(=O)[C@H]2C(C)(C)CCC[C@]2(C)[C@H]1/C=C/c1ccoc1SCc1ccc(F)cc1", "IC50": 9.7}, {"compound": "CC1=CC(=O)[C@H]2C(C)(C)CCC[C@]2(C)[C@H]1/C=C/c1ccoc1Sc1ccc2ccccc2c1", "IC50": 9.7}, {"compound": "CC1=CC(=O)[C@H]2C(C)(C)CCC[C@]2(C)[C@H]1/C=C/c1ccoc1Sc1ccc(Cl)cc1Cl", "IC50": 9.7}, {"compound": "CC1=CC(=O)[C@H]2C(C)(C)CCC[C@]2(C)[C@H]1/C=C/c1ccoc1Sc1ccccc1C", "IC50": 9.7}, {"compound": "CSc1ccc(Sc2occc2/C=C/[C@H]2C(C)=CC(=O)[C@H]3C(C)(C)CCC[C@]23C)cc1", "IC50": 9.7}, {"compound": "CC1=CC(=O)[C@H]2C(C)(C)CCC[C@]2(C)[C@H]1/C=C/c1ccoc1Sc1cccc(C)c1", "IC50": 9.7}]}]}
